This test addresses human MAGL (Homo sapiens (Human), UniProt Q99685). Description: MAGL inhibition potency assay with 4NPA substrate (methods of Table C). It counts as biochemical.
[1] abbreviates: Method 2: Cayman Chemical MAGL enzyme, 10 nM, read-out: Potency (MAGL inhibition).
Setting [2] is: Method 12: Reaction Biology MAGL enzyme, 15 nM, read-out: Potency (MAGL inhibition).

Consider 18 compounds from US20250170100A1, “MONOACYLGLYCEROL LIPASE INHIBITORS AND USE THEREOF FOR THE TREATMENT OF ANXIETY AND RELATED CONDITIONS” (Psy Therapeutics, Inc., priority 2021, published 2025).

Structures are written as SMILES. Read-outs that look alike come from different tables or passages of the source.

Chain of human MAGL (Q99685 2-303): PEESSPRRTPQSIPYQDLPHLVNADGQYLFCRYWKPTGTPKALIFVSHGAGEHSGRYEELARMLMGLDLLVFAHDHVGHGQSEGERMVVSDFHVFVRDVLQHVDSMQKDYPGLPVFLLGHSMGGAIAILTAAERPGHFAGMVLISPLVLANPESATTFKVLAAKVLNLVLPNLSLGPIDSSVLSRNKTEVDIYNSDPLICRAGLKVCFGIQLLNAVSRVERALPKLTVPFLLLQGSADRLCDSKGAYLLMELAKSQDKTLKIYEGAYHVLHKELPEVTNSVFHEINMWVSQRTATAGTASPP

In the case of `Cc1cc(C2CC3(C2)CN([C@@H]2COc4ccccc42)C3)n(-c2ccccc2C)n1` [Compound 155], under setting [1], the IC50 is greater than 10 µM.

Regarding `Cc1cc(C2CC3(C2)CN(C(=O)c2ccn(C)c2)C3)n(-c2ccccc2C)n1` [Compound 182], under setting [1], the IC50 was greater than 10 µM.

On to `Cc1cc(C2CC3(C2)CN([C@H]2COc4ccccc42)C3)n(-c2ccccc2C)n1` [Compound 154], for which, under setting [1], the IC50 was greater than 10 µM.

`Cc1cc(C2CC3(C2)CN(C2CCOc4ccccc42)C3)n(-c2ccccc2C)n1` (centres unmarked) [Compound 152]: the IC50 under setting [1] was greater than 10 µM.

In the case of `Cc1cn(C2CC3(C2)CN(C(=O)c2cc(O)ccc2C(F)(F)F)C3)nc1-c1ccccc1F` [Compound 495], under setting [2], the IC50 is greater than 10 µM.

As for `Cc1cc(C2CC3(C2)CN(C(=O)c2ccoc2)C3)n(-c2ccccc2C)n1` [Compound 179], the IC50 under setting [1] was greater than 10 µM.

Turning to `Cc1cc(C2CC3(C2)CN(C(=N)c2cc(O)ccc2F)C3)n(-c2ccccc2C)n1` [Compound 144], the IC50 under setting [1] is greater than 10 µM.

As for `Cc1cc(-c2cc(F)ccc2C)n(C2CC3(C2)CN(C(=O)c2ccc(F)cc2OC(F)(F)F)C3)n1` [Compound 427], the IC50 (Method 11: Reaction Biology MAGL enzyme, Conc 20 (text: 25 nM), read-out: Potency (MAGL inhibition)) is greater than 10 µM.

With `CCOc1cc(F)ccc1C(=O)N1CC2(CC(C(=O)N(C)c3cccnc3C)C2)C1` [Compound 198], for the setting “Method 4: Cayman Chemical MAGL enzyme, 15 nM, read-out: Potency (MAGL inhibition)”, the IC50 is greater than 10 µM.

`Cc1cc(C2CC3(C2)CN(C(=O)c2cc[nH]c2)C3)n(-c2ccccc2C)n1` [Compound 184]: the IC50 under setting [1] is greater than 10 µM.

As to `Cc1cc(C2CC3(C2)CN(C(=O)c2ccc[nH]2)C3)n(-c2ccccc2C)n1` [Compound 183], the IC50 under setting [1] was greater than 10 µM.

For `CCOc1cc(F)ccc1C(=O)N1CC2(CC(C(=O)Nc3ccccc3C)C2)C1` [Compound 188], the IC50 under setting [1] was greater than 10 µM.

`Cc1cnn(C2CC3(C2)CN(C(=O)c2cc(O)ccc2F)C3)c1-c1ccccc1F` [Compound 494]: the IC50 under setting [2] was greater than 10 µM.

On to `O=C(c1c(F)cccc1OC1CC1)N1CC2(CC(n3ncc(C(F)(F)F)c3-c3ccccc3F)C2)C1` [Compound 521], for which the IC50 under setting [2] is greater than 10 µM.

For the compound `Cc1cc(C2CC3(C2)CN(C(=O)c2cccn2C)C3)n(-c2ccccc2C)n1` [Compound 181], under setting [1], the IC50 was greater than 10 µM.

Regarding `Cc1cc(C2CC3(C2)CN(C(=O)c2ccc(F)cc2OCC(F)(F)F)C3)n(-c2ccccc2C)n1` [Compound 178, [4-fluoro-2-(2,2,2-trifluoroethoxy)phenyl]{6-[3-methyl-1-(o-tolyl)-5-pyrazolyl]-2-aza-2-spiro[3.3]heptyl}methanone], the IC50 was less than 0.05 µM (Method 2: Cayman Chemical MAGL enzyme, 10 nM, read-out: MAGL Potency (Detection Method)); less than 0.05 µM (Method 3: Reaction Biology MAGL enzyme, 10 nM, read-out: MAGL Potency (Detection Method)); less than 0.05 µM (Method 5: Cayman Chemical MAGL enzyme, 25 nM, read-out: MAGL Potency (Detection Method)).

For the compound `COc1cc(F)ccc1C(=O)N1CC2(CC(c3cc(C)nn3-c3ccccc3C)C2)C1` [Compound 149], under setting [1], the IC50 was greater than 10 µM.

Regarding `Cc1cc(C2CC3(C2)CN([C@@H]2CCOc4ccccc42)C3)n(-c2ccccc2C)n1` [Compound 153], the IC50 under setting [1] is greater than 10 µM.
